# What was measured:
# Test in all cases: Agar well diffusion assay, antagonism of molds
# Format in all cases: cell-based
# Settings in all cases: PDA plates, 25° C. 72 hours
# [1] = system: Alternaria alternata (Fries) Keissler (ATCC MYA-4642)
# Method: (§1) The agar well diffusion assay was performed to evaluate the antagonistic activity of B. amyloliquefaciens 298 against the growth of pathogenic bacteria including Escherichia coli ATCC 22922, Pseudomonas aeruginosa, B. cereus ATCC 27348, Staphylococcus aureus ATCC 11335, Salmonella Typhimurium ATCC 14028 and Listeria innocua ATCC 3586. […] Brain Heart Infusion (BHI) Agar was used for the antagonism against pathogenic microorganisms while the Potato Dextrose Agar (PDA) was used for evaluation against molds. Reference pathogens were prepared using BHI broth at 37° C. for 18 hours while B. amyloliquefaciens 298 was grown using LB broth at 37° C. for 18 hours. Molds were prepared using PDA at 25° C. with 85% HR for 7 days. Mold spores, pathogens and B. amyloliquefaciens 298 were harvested and resuspended in PBS. Pathogens and B. amyloliquefaciens 298 were adjusted to an optical density of 0.2 and 100 uL of pathogen suspended in PBS was spread on BHI agar plates. The same amount of mold spore suspension was inoculated on PDA. Wells were made in all the plates and 20 μL of B. amyloliquefaciens 298 suspensions were inoculated in the wells while the BHI plates were incubated at 37° C. for 24 hours and PDA plates at 25° C. for 72 hours.
# [2] = system: Cladosporium sphaerospermum Penzig (ATCC MYA-4645)
# Method: as §1
# [3] = system: Penicillium chrysogenum Thom (ATCC MYA-4644)
# Method: as §1
compound,measurement,setting,value
"OO [Hydrogen peroxide 10%, hydrogen peroxide]","Inhibition zone, Alternaria alternata (Fries) Keissler (ATCC MYA-4642)",[1],8 mm
same,"Inhibition zone, Cladosporium sphaerospermum Penzig (ATCC MYA-4645)",[2],12 mm
same,"Inhibition zone, Penicillium chrysogenum Thom (ATCC MYA-4644)",[3],10 mm

# Reference: patent US11618880B2, “Compositions comprising bacterial strains and use thereof in controlling pathogenic microorganisms” (Better Air International Limited, priority 2018, dated 2023)
